From ChEMBL document CHEMBL5608165, “Opportunities and perspectives of small molecular phosphodiesterase inhibitors in neurodegenerative diseases” (Eur J Med Chem, 2024) come the findings set out here.

A short description of assay [1]: Inhibition of PDE1 (unknown origin). Further details: species or system Homo sapiens.
Another assay concerns the target Acetylcholinesterase (Homo sapiens, UniProt P22303). Briefly: Inhibition of AChE (unknown origin) using acetylthiocholine iodide as substrate by Ellman's method.
For assay [2], the target named is T1, cGMP-specific 3',5'-cyclic phosphodiesterase (Homo sapiens, UniProt O76074). Briefly: Inhibition of PDE5A (unknown origin).
Assay [3] has as its target Dual specificity calcium/calmodulin-dependent 3',5'-cyclic nucleotide phosphodiesterase 1C (Homo sapiens, UniProt Q14123). Briefly: Inhibition of PDE1C (unknown origin).
Assay [4] addresses Dual specificity calcium/calmodulin-dependent 3',5'-cyclic nucleotide phosphodiesterase 1B (Homo sapiens, UniProt Q01064). Briefly: Inhibition of PDE1B (unknown origin).
In assay [5] the target is High affinity 3',5'-cyclic-AMP phosphodiesterase 7A (Homo sapiens, UniProt Q13946). Briefly: Inhibition of PDE7A (unknown origin).
Sequence of High affinity 3',5'-cyclic-AMP phosphodiesterase 7A (Q13946 whole entry): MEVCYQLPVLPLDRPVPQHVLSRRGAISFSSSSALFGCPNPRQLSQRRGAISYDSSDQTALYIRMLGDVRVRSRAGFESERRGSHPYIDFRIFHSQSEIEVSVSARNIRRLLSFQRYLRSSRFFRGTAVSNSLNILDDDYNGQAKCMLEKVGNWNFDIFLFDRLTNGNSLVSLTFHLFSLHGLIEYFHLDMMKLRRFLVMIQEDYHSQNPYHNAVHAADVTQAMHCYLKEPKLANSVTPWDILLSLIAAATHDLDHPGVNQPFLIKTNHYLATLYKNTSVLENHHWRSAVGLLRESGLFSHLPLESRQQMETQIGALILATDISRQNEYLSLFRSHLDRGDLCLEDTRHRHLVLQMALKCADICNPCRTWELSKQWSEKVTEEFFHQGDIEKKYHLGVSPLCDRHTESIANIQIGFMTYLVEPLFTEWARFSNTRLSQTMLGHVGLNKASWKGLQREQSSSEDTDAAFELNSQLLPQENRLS
Assay [6] has as its target Glycogen synthase kinase-3 alpha (Homo sapiens, UniProt P49840). Briefly: Inhibition of GSK3alpha (unknown origin).
For assay [7], the target named is T2, High affinity cGMP-specific 3',5'-cyclic phosphodiesterase 9A (Homo sapiens, UniProt O76083). Briefly: Inhibition of PDE9A (unknown origin).
T2 sequence (O76083 whole entry): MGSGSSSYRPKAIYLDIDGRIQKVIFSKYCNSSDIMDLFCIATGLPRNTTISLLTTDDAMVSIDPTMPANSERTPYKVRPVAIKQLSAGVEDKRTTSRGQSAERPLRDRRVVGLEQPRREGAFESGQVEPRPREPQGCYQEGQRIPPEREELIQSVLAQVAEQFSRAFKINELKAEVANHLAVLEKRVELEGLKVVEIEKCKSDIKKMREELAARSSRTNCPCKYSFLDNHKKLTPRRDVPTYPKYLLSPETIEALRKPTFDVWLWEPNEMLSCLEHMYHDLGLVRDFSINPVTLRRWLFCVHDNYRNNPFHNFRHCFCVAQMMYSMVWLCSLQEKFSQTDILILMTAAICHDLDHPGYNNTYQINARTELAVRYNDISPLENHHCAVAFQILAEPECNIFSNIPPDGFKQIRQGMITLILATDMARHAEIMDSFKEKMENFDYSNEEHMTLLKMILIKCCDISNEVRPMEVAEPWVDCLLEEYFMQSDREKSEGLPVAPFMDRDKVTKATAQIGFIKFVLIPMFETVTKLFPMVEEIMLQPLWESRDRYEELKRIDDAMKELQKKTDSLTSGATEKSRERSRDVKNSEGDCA
Assay [8] deals with cGMP-inhibited 3',5'-cyclic phosphodiesterase 3A (Homo sapiens, UniProt Q14432). Briefly: Inhibition of PDE3A (unknown origin) using FAM-cAMP as substrate incubated for 45 mins by TR-FRET analysis.
Assay [9] has as its target cGMP-inhibited 3',5'-cyclic phosphodiesterase 3B (Homo sapiens, UniProt Q13370). Briefly: Inhibition of human recombinant PDE3B using FAM-cyclic-3',5'-AMP as substrate incubated for 1 hrs by fluorescence polarization based assay.
The target of another assay is Histone deacetylase 1 (Homo sapiens, UniProt Q13547). Briefly: Inhibition of HDAC1 (unknown origin).
Sequence of Histone deacetylase 1 (Q13547 whole entry): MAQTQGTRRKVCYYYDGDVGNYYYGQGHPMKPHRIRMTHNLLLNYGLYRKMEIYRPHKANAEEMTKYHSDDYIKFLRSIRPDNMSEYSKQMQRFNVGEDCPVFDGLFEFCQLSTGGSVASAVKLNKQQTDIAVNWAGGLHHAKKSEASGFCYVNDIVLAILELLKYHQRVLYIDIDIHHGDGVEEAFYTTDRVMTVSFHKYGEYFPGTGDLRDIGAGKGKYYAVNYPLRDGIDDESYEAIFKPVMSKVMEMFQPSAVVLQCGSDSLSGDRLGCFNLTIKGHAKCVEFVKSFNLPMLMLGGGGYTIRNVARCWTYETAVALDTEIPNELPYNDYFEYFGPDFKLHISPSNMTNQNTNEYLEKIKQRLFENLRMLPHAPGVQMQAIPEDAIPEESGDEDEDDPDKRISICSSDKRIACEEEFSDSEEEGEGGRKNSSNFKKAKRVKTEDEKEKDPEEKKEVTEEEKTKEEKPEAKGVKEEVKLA
Assay [10] has as its target 3',5'-cyclic-AMP phosphodiesterase 4B (Homo sapiens, UniProt Q07343). Briefly: Inhibition of human recombinant PDE4B1 using […] as substrate preincubated with compound for 15 mins followed by substrate addition and measured after 30 mins by spectrofluorimetric analysis.
The target of the next assay is Phosphodiesterase 4 (Homo sapiens, UniProt P27815+Q08499+Q07343+Q08493). The assay is described as follows: Inhibition of PDE4 (unknown origin). Type of assay: protein assay.
The target of assay [11] is 3',5'-cyclic-AMP phosphodiesterase 7B (Homo sapiens, UniProt Q9NP56). The assay is described as follows: Inhibition of PDE7B (unknown origin).
Sequence of 3',5'-cyclic-AMP phosphodiesterase 7B (Q9NP56 whole entry): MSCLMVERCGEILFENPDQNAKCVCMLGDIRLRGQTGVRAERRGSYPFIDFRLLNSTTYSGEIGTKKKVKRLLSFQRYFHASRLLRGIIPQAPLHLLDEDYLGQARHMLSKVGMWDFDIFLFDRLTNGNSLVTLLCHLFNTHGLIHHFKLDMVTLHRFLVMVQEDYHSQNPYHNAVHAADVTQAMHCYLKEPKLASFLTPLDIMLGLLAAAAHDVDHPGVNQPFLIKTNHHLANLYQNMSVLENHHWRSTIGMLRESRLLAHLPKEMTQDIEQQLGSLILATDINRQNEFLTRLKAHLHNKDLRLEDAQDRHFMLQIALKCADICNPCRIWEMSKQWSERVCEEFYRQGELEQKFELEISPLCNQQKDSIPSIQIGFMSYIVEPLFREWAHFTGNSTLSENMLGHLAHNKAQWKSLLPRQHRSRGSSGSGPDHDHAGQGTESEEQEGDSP
Assay [12] concerns the target Dual specificity calcium/calmodulin-dependent 3',5'-cyclic nucleotide phosphodiesterase 1A (Homo sapiens, UniProt P54750). The assay is described as follows: Inhibition of human recombinant GST-tagged PDE1A.
Assay [13] addresses T2, High affinity cGMP-specific 3',5'-cyclic phosphodiesterase 9A. The assay is described as follows: Binding affinity to PDE9A (unknown origin) using [3H]cAMP as substrate assessed as inhibition constant incubated for 1 hr by […].
Assay [14] concerns the target T3, cAMP and cAMP-inhibited cGMP 3',5'-cyclic phosphodiesterase 10A (Homo sapiens, UniProt Q9Y233). Briefly: Inhibition of his-tagged recombinant human PDE10A catalytic domain extracted from Escherichia coli BL21(DE3) using [3H]-cAMP as substrate incubated for 10 mins by SPA assay.
Assay [15] has as its target T3, cAMP and cAMP-inhibited cGMP 3',5'-cyclic phosphodiesterase 10A. Briefly: Inhibition of PDE10A (unknown origin).
Assay [16] has as its target cGMP-dependent 3',5'-cyclic phosphodiesterase (Homo sapiens, UniProt O00408). The assay is described as follows: Inhibition of PDE2A (unknown origin) using 3H-cGMP as substrate.
Assay [17] has as its target T1, cGMP-specific 3',5'-cyclic phosphodiesterase. Briefly: Inhibition of PDE5A1 (unknown origin) using [3H]-cGMP substrate incubated for 15 mins by liquid scintillation counting method.

The structures appear in SMILES notation.

Sequence of Dual specificity calcium/calmodulin-dependent 3',5'-cyclic nucleotide phosphodiesterase 1C (Q14123 whole entry): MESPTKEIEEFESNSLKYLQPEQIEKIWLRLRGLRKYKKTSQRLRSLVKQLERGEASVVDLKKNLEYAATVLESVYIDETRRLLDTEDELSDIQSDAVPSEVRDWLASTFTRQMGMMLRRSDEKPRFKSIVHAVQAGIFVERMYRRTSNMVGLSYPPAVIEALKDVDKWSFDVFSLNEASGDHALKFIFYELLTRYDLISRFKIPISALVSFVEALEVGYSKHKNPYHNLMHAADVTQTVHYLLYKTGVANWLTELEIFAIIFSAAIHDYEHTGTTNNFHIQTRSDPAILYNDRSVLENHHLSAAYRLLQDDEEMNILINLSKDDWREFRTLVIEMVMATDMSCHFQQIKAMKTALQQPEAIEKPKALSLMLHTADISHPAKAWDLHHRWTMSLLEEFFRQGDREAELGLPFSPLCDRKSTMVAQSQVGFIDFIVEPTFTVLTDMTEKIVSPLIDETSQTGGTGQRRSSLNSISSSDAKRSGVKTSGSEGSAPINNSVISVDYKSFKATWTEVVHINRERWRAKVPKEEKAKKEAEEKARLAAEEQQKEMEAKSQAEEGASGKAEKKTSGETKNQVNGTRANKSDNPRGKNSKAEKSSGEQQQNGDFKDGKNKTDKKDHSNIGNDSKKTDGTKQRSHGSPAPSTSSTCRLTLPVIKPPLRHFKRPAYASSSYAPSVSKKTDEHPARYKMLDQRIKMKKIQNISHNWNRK
Sequence of Acetylcholinesterase (P22303 whole entry): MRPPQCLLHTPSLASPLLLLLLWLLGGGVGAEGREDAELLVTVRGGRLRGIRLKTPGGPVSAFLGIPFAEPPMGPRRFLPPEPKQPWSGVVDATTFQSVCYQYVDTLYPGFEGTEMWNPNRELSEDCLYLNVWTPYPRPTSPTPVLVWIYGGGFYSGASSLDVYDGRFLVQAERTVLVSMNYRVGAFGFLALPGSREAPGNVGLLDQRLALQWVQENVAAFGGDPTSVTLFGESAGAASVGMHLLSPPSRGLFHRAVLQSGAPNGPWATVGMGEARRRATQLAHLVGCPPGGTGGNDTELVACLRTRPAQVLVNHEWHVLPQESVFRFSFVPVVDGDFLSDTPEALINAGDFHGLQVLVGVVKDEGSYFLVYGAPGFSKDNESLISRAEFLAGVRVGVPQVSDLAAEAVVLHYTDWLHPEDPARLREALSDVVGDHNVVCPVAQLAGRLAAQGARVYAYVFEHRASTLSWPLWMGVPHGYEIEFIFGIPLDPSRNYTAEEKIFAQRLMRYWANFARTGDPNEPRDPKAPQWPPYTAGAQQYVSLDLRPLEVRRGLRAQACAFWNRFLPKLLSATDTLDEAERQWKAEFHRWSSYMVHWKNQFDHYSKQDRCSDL
Sequence of Dual specificity calcium/calmodulin-dependent 3',5'-cyclic nucleotide phosphodiesterase 1B (Q01064 whole entry): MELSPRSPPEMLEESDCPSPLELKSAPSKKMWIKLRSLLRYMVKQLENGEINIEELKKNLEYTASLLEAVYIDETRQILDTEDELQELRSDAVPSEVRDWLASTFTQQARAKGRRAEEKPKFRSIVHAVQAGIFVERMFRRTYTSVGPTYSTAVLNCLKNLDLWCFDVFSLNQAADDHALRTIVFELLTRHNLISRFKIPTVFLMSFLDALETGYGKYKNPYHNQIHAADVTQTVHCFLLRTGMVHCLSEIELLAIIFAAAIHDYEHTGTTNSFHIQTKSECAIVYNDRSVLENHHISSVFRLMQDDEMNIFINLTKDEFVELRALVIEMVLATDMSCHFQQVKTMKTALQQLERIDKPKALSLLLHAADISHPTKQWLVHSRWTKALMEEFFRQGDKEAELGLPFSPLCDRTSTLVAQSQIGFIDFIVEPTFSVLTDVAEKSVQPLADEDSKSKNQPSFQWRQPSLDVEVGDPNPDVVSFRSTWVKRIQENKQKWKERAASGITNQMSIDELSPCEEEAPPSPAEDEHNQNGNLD
Sequence of 3',5'-cyclic-AMP phosphodiesterase 4B (Q07343 whole entry): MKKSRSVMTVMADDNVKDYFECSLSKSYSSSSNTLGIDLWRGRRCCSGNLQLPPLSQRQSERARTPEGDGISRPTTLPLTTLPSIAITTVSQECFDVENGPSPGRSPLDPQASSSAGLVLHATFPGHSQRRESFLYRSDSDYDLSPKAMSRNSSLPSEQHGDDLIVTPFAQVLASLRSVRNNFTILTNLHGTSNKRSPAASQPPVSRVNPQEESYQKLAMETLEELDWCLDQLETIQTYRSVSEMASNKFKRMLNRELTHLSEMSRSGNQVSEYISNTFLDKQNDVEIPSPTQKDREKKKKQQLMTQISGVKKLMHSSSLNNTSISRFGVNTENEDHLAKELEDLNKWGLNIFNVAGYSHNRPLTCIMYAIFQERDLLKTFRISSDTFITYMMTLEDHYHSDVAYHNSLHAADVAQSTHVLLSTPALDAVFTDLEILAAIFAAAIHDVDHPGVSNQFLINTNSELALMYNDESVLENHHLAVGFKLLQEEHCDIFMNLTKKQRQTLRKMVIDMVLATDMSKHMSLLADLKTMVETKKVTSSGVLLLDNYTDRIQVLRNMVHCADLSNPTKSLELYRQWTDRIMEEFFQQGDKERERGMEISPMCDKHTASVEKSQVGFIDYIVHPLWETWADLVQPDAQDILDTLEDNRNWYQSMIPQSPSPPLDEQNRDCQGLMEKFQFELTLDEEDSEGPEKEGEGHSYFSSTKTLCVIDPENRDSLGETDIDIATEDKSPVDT

Compound `CCOC(=O)C1=C[C@]2(CC)CCCN3CCc4c(n1c1ccccc41)[C@@H]32` [VINPOCETINE] returned a half-inhibitory concentration (IC50) in assay [1] of 30000 nM.
Take `O=C1[C@H]2Cc3c([nH]c4ccccc34)[C@@H](c3ccc4c(c3)OCO4)N2C(=O)CN1CCC1CCN(Cc2ccccc2)CC1`: the results for the IC50 (at Acetylcholinesterase; in assay [2]) were 150 nM and 0.15 nM, respectively.
Regarding `Cn1c(OC[C@H]2CC[C@H](C(F)(F)F)CC2)nn2c(C3CCOCC3)ncc2c1=O`, the IC50 in assay [3] was 431 nM; in [4] it was 43.9 nM.
For `c1ccc(-c2n/c(=N/CCN3CCOCC3)sn2-c2ccccc2)cc1`, the results for the IC50 in [5] and in assay [6] were 1590 nM and 880 nM, respectively.
With `COC[C@H]1CC[C@H](Oc2nn3c(C4CCOCC4)ncc3c(=O)n2C)CC1`, the IC50 was 86 nM in [3] and 7.5 nM in assay [4].
In the case of `COc1ccc(/C(CSc2nc3ccccc3c(=O)n2-c2ccccc2)=N\N)cc1`, the IC50 in assay [5] turned out to be 1150 nM.
As to `CC(C)=CCc1c2c(c3occ(-c4ccc(OS(C)(=O)=O)c(OS(C)(=O)=O)c4)c(=O)c3c1O)CCC(C)(C)O2`, the IC50 in assay [7] amounted to 5.3 nM.
On to `O=C1CCc2cc(OCCCCc3nnnn3C3CCCCC3)ccc2N1` [CILOSTAZOL], for which the IC50 in assay [8] was 27 nM; in [9], 50 nM.
As for `CC(C)CCn1c2c(c3c(O)cc(O)cc31)CCn1c-2nc2ccccc2c1=O`, in assay [2], the IC50 was found to be 36 nM.
In [7], `C[C@@H]1CC(Cc2ccc(C(=O)NO)cc2)C[C@H]1c1nc2c(cnn2C2CCCC2)c(=O)[nH]1` (stereo partly specified) gave an IC50 of 107 nM.
On to `Cn1c(=O)c2[nH]cnc2n(C)c1=O` [THEOPHYLLINE ANHYDROUS], for which, in assay [1], the IC50 stood at 280 nM.
In turn, `O=C1NC(=O)/C(=C/c2ccc(OCCNc3nc4c(cnn4C4CCCC4)c(=O)[nH]3)c(F)c2)S1` registered an IC50 in assay [7] of 1.1 nM.
In turn, `CCCc1nc(C)c2c(=O)[nH]c(-c3cc(CC4CC(C(=O)NO)C4)ccc3OCC)nn12` (stereo unspecified) showed an IC50 against Histone deacetylase 1 of 208 nM.
Turning to `O=C(Nc1ccccc1Cl)c1ccc(OC(F)F)c(OCC2CC2)c1`, the IC50 worked out at 144 nM in [10] and 90 nM on Phosphodiesterase 4.
On the same counts, the results for `O=C(Nc1ccccc1Cl)c1ccc(OC(F)F)c(OC2CCCC2)c1` are 95 nM and 30 nM.
With `Cc1ccc([N+](=O)[O-])cc1S(=O)(=O)N(C)C`, the IC50 is 12100 nM in assay [11] and 150 nM in assay [5].
`C=CCn1cc(-c2nc3ccccc3nc2Cl)c2cc(OC)ccc21`: the IC50 in assay [10] is 10.6 nM.
As to `C[C@@H](NC(=O)/C=C/c1cccc(O)c1)c1nc2c(cnn2C2CCCC2)c(=O)[nH]1`, in assay [7], 58 nM corresponded to half-maximal inhibition (IC50).
Consider `CN1C(=O)c2c(nn(Cc3ccc(-c4cccc(F)n4)cc3)c2Nc2ccccc2)N2C1=N[C@@H]1CCC[C@@H]12` [LENRISPODUN], for which the IC50 in assay [1] was 50 nM.
For the compound `COc1ccc2c(N(C)[C@]3(C)CCO[C@H]3C)ncnc2c1OC`, the IC50 was 46.8 nM in [3], 57.5 nM in assay [12] and 13.8 nM in [4].
In assay [2], `CCc1cc(C#N)cc2c(NCc3ccc(OC)c(Cl)c3)c(COCCF)cnc12` displayed an IC50 of 33.4 nM.
Take `CCCn1c(=O)c2[nH]c(-c3cccc(C(C)C)c3)cc2n(-c2ccc3c(c2)CNC3C(=O)OC)c1=O` (stereo unspecified): the Ki in assay [13] was 1.53 nM.
In assay [1], `CC(C)(C)n1ncc2c(=O)n(Cc3cccc(F)c3)c(NCc3ccc(F)cn3)nc21` returned an IC50 of 40 nM.
As for `CCCc1nn(C)c2c(=O)[nH]c(-c3cc(Cc4ccc(C(=O)Nc5ccccc5N)cc4)ccc3OCC)nc12`, the IC50 against Histone deacetylase 1 turned out to be 180 nM.
Consider `O=c1c(/C=C/c2nc3cc(Cl)ccc3n2-c2ccccc2)coc2ccc(F)cc12`, for which the IC50 in assay [14] was determined as 9.5 nM.
Consider `COc1cc2ncnc(NCCc3c[nH]c4ccc(O)cc34)c2cc1OC`, for which the IC50 in assay [15] turned out to be 0.64 nM.
Compound `O=C(NCCc1ccccc1)c1cnn2c(=O)cc(-c3ccccc3)[nH]c12` registered an IC50 in assay [16] of 1.9 nM.
Regarding `COc1ccc([C@@H]2c3[nH]c4ccccc4c3C[C@H]3C(=O)N(CCC4CCN(Cc5ccccc5)CC4)CC(=O)N23)cc1`, the IC50 against Acetylcholinesterase was 3200 nM; in assay [2], 3.2 nM.
Compound `CCCCn1c(=O)n(CC)c(=O)c2[nH]c(-c3cccc(C(C)C)c3)cc21` had an IC50 in assay [7] of 38000 nM.
`CC(c1cccc2ccccc12)n1cnc2c(=O)[nH]c(Cc3ccccc3)nc21` (stereo unspecified) yielded an IC50 in assay [16] of 570 nM.
For `COc1ccc(CNc2c(COCCF)cnc3c(C4CC4)cc(C#N)cc23)cc1Cl`, the IC50 in assay [2] was 8 nM.
In turn, `CN1CC(=O)N2[C@H](c3ccc4c(c3)OCO4)c3[nH]c4ccccc4c3C[C@@H]2C1=O` yielded an IC50 against Acetylcholinesterase of […].
With `O=C1[C@@H]2Cc3c([nH]c4ccccc34)[C@@H](c3ccc4c(c3)OCO4)N2C(=O)CN1CCC1CCN(Cc2ccccc2)CC1`, the IC50 at Acetylcholinesterase was found to be 1630 nM; in assay [2], 1.63 nM.
For the compound `COc1cc2c(cc1OC)C(=O)C(CC1CCN(Cc3ccccc3)CC1)C2` (stereo unspecified) [DONEPEZIL], the IC50 in [17] came out at 11 nM.
